# Experimental data: patent US20090023186A1, “USE OF VALPROIC ACID FOR ENHANCING PRODUCTION OF RECOMBINANT PROTEINS IN MAMMALIAN CELLS” (EXCELLGENE SA, priority 2007, published 2009)
# Test system: CHO DG44 cells
# Assay: Alternative transgene TNFR-Fc, batch titer by ELISA (Example 4)
# Assay type: cell-based, Chinese Hamster
# Conditions: 0.5 mmol/l final VPA, day 5 after transfection
# Description: 10 million suspension-adapted HEK293E cells were resuspended in 0.5 ml of Ex-Cell 293 HEK 293 serum-free medium with 4 mmol/l L-glutamine (Cat. No. 14571C-[…]; Lot No. 6A0093; SAFC Biosciences, Lenexa, Kans., USA, “Ex-Cell” medium; note: “Ex-Cell” medium-as used herein-refers to a medium comprising 4 mmol/l L-glutamine) in a 50-ml filter tube each (TPP AG, Trasadingen, Switzerland; Cat. No. 87050, Lot 20050174). In a separate set, 10 million suspension-adapted CHO DG44 cells were resuspended in 0.5 ml of ProCHO5 serum-free medium with 4 mmol/[…] hypoxanthine and 0.194 g/l thymidine (BioWhittaker (Lonza), Belgium; Cat. No. BE12-[…]; Lot No. 7MB0040; “ProCHO5” medium; note: “ProCHO5” medium-as used herein-refers to a medium comprising 4 mmol/[…] hypoxanthine and 0.194 g/l thymidine) in a 50-ml filter tube each (TPP AG, Trasadingen, Switzerland; Cat. No. 87050, Lot 20050174). […] In short, Goat Anti-Human IgG (Fc Fragment specific; Jackson ImmunoResearch Laboratories Inc., West Grove, Pa., USA; Code Number 109-006-098; Lot No. 72349) was used for coating the ELISA-plates, and with AP-conjugated goat anti-human gamma chain IgG (Biosource) the synthesized TNFR-Fc was detected. […] Absorption was measured at 405 nm against 490 nm using a microplate reader (SPECTRAmaxTM340; Molecular Devices, Palo Alto, Calif., USA).
structure (smiles),measurement,value
"CCCC(CCC)C(=O)O [VPA, valproic acid]",Batch titer,27.7 ± 3.7 mg/L
same,Fold increase over control,1.8 fold
